Reference: PubChem BioAssay (NCI)
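48-hour exposure; five concentrations; linearly interpolated endpoints. Here, GI50 denotes the concentration required for 50% inhibition of growth. TGI denotes the concentration required for complete inhibition of growth.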

Experiments:
Test in all cases: DTP human tumour cell line panel, 48 h
DU-145 prostate = system: DU-145 prostate
IGROV1 ovarian = system: IGROV1 ovarian
KM12 colon = system: KM12 colon
MDA-MB-435 = system: MDA-MB-435
OVCAR-4 ovarian = system: OVCAR-4 ovarian
OVCAR-5 ovarian = system: OVCAR-5 ovarian
OVCAR-8 ovarian = system: OVCAR-8 ovarian
PC-3 prostate = system: PC-3 prostate
SK-MEL-2 melanoma = system: SK-MEL-2 melanoma
SN12C renal = system: SN12C renal

O=C1C(Cl)=C(Nc2cccc(Cl)c2)C(=O)N1Cc1ccccc1
GI50 (DU-145 prostate): 15.3 µM
TGI (DU-145 prostate): 30.6 µM
GI50 (IGROV1 ovarian): 8.15 µM
TGI (IGROV1 ovarian): > 100 µM
GI50 (KM12 colon): 11.5 µM
TGI (KM12 colon): 26.9 µM
GI50 (MDA-MB-435): 2.26 µM
TGI (MDA-MB-435): 7.17 µM
GI50 (OVCAR-4 ovarian): 22.3 µM
TGI (OVCAR-4 ovarian): 67.4 µM
GI50 (OVCAR-5 ovarian): 9.49 µM
TGI (OVCAR-5 ovarian): 33.1 µM
GI50 (OVCAR-8 ovarian): 4.63 µM
TGI (OVCAR-8 ovarian): 32 µM
GI50 (PC-3 prostate): 3.52 µM
TGI (PC-3 prostate): 20.1 µM
GI50 (SK-MEL-2 melanoma): 21.7 µM
TGI (SK-MEL-2 melanoma): > 100 µM
GI50 (SN12C renal): 11.2 µM
TGI (SN12C renal): 25.1 µM

CC[C@]12CCCN3CCc4c(n(c5ccccc45)C(=O)C1)[C@@H]32
TGI (DU-145 prostate): > 92.7 µM
TGI (IGROV1 ovarian): > 100 µM
TGI (KM12 colon): > 100 µM
TGI (MDA-MB-435): 4.41 µM
TGI (OVCAR-4 ovarian): > 76.3 µM
TGI (OVCAR-5 ovarian): > 100 µM
TGI (OVCAR-8 ovarian): > 100 µM
TGI (PC-3 prostate): > 100 µM
TGI (SK-MEL-2 melanoma): > 100 µM
TGI (SN12C renal): > 100 µM

Cc1ccc(S(=O)(=O)OC2CCN(C)CC2)cc1
TGI (DU-145 prostate): > 100 µM
TGI (IGROV1 ovarian): > 100 µM
TGI (MDA-MB-435): > 100 µM
TGI (OVCAR-4 ovarian): > 100 µM
TGI (OVCAR-5 ovarian): > 100 µM
TGI (OVCAR-8 ovarian): > 100 µM
TGI (PC-3 prostate): > 100 µM
TGI (SK-MEL-2 melanoma): > 100 µM
TGI (SN12C renal): > 100 µM

O=C[C@@H](CO)O[C@H](C=O)c1c[nH]c(=O)[nH]c1=O
TGI (DU-145 prostate): 437 µM
TGI (IGROV1 ovarian): 343 µM
TGI (KM12 colon): 362 µM
TGI (MDA-MB-435): 155 µM
TGI (OVCAR-4 ovarian): 375 µM
TGI (OVCAR-5 ovarian): 379 µM
TGI (OVCAR-8 ovarian): 352 µM
TGI (PC-3 prostate): 790 µM
TGI (SK-MEL-2 melanoma): 3680 µM
TGI (SN12C renal): 551 µM

CCOC(=O)c1c2c(c(O)c3ccccc3c(O)n(Cc3ccc(OC)cc3)c1C)C(=O)C=CC2=O
GI50 (DU-145 prostate): > 100 µM
TGI (DU-145 prostate): > 100 µM
GI50 (IGROV1 ovarian): > 100 µM
TGI (IGROV1 ovarian): > 100 µM
GI50 (KM12 colon): > 100 µM
TGI (KM12 colon): > 100 µM
GI50 (MDA-MB-435): > 100 µM
TGI (MDA-MB-435): > 100 µM
GI50 (OVCAR-4 ovarian): > 100 µM
TGI (OVCAR-4 ovarian): > 100 µM
GI50 (OVCAR-5 ovarian): > 100 µM
TGI (OVCAR-5 ovarian): > 100 µM
GI50 (OVCAR-8 ovarian): > 100 µM
TGI (OVCAR-8 ovarian): > 100 µM
GI50 (PC-3 prostate): > 100 µM
TGI (PC-3 prostate): > 100 µM
GI50 (SK-MEL-2 melanoma): > 100 µM
TGI (SK-MEL-2 melanoma): > 100 µM
GI50 (SN12C renal): > 100 µM
TGI (SN12C renal): > 100 µM

Cc1ccc(NC(=O)c2cc3cc(N=Nc4ccc(Br)cc4)ccc3oc2=O)cc1
TGI (KM12 colon): > 100 µM
TGI (OVCAR-4 ovarian): > 100 µM
TGI (OVCAR-5 ovarian): > 100 µM
TGI (SK-MEL-2 melanoma): > 100 µM
TGI (SN12C renal): > 100 µM

COc1ccccc1NC(=O)c1sc2nc3c(cc2c1N)C(=O)CCC3
GI50 (DU-145 prostate): > 100 µM
TGI (DU-145 prostate): > 100 µM
GI50 (IGROV1 ovarian): 8.15 µM
TGI (IGROV1 ovarian): > 100 µM
GI50 (MDA-MB-435): 0.295 µM
TGI (MDA-MB-435): 1.58 µM
GI50 (OVCAR-8 ovarian): 3.97 µM
TGI (OVCAR-8 ovarian): > 100 µM
GI50 (SK-MEL-2 melanoma): 1.81 µM
TGI (SK-MEL-2 melanoma): > 100 µM
GI50 (SN12C renal): > 100 µM
TGI (SN12C renal): > 100 µM

O=C1c2ccccc2-c2c1c1ccccc1c(=O)n2CCCCNCCCn1c2c(c3ccccc3c1=O)C(=O)c1ccccc1-2
GI50 (DU-145 prostate): 0.379 µM
TGI (DU-145 prostate): 1.12 µM
GI50 (KM12 colon): 0.31 µM
TGI (KM12 colon): 2.45 µM
GI50 (MDA-MB-435): 0.851 µM
TGI (MDA-MB-435): 4.32 µM
GI50 (OVCAR-4 ovarian): 0.683 µM
TGI (OVCAR-4 ovarian): 15.5 µM
GI50 (OVCAR-5 ovarian): 0.676 µM
TGI (OVCAR-5 ovarian): 1.54 µM
GI50 (OVCAR-8 ovarian): 0.256 µM
TGI (OVCAR-8 ovarian): 1.5 µM
GI50 (PC-3 prostate): 0.245 µM
TGI (PC-3 prostate): 1.05 µM
GI50 (SK-MEL-2 melanoma): 3.51 µM
TGI (SK-MEL-2 melanoma): 15.2 µM
GI50 (SN12C renal): 0.158 µM
TGI (SN12C renal): 1.13 µM

CC(C)/C=C1\CCC(CN2CCCC2)C1=O (stereo not drawn)
TGI (IGROV1 ovarian): > 62.5 µM
TGI (KM12 colon): 23.1 µM
TGI (OVCAR-4 ovarian): 32.5 µM
TGI (OVCAR-5 ovarian): 35.2 µM
TGI (OVCAR-8 ovarian): 16.5 µM
TGI (SK-MEL-2 melanoma): 37.7 µM
TGI (SN12C renal): 34.8 µM

COc1ccc(C2CC(=O)c3c(O)cc(O)cc3O2)cc1O (stereo not drawn)
TGI (IGROV1 ovarian): > 100 µM
TGI (KM12 colon): > 100 µM
TGI (OVCAR-4 ovarian): > 100 µM
TGI (OVCAR-5 ovarian): > 100 µM
TGI (OVCAR-8 ovarian): > 100 µM
TGI (SK-MEL-2 melanoma): > 100 µM
TGI (SN12C renal): > 100 µM

O=C1[C@@H]2C(c3ccccc3Br)=NO[C@@H]2C(=O)N1c1ccc(Cc2ccc(N3C(=O)[C@H]4C(c5ccccc5Br)=NO[C@H]4C3=O)cc2)cc1
TGI (IGROV1 ovarian): > 100 µM
TGI (KM12 colon): > 100 µM
TGI (OVCAR-4 ovarian): > 100 µM
TGI (OVCAR-5 ovarian): > 100 µM
TGI (OVCAR-8 ovarian): > 100 µM
TGI (SK-MEL-2 melanoma): > 100 µM
TGI (SN12C renal): > 100 µM

CS/C(=N\C(=S)N(C)C)N(c1ccccc1)c1nc(=[N+](C)C)ss1
TGI (IGROV1 ovarian): > 100 µM
TGI (KM12 colon): 15.8 µM
TGI (OVCAR-4 ovarian): 24.7 µM
TGI (OVCAR-8 ovarian): 28.1 µM
TGI (SK-MEL-2 melanoma): 36.6 µM
TGI (SN12C renal): 37.9 µM

Cc1ccccc1NC(=O)C(=O)C(C#N)c1ccc(Cl)cc1 (stereo not drawn)
TGI (IGROV1 ovarian): > 100 µM
TGI (KM12 colon): > 100 µM
TGI (OVCAR-5 ovarian): > 100 µM
TGI (OVCAR-8 ovarian): > 100 µM
TGI (SK-MEL-2 melanoma): > 100 µM
TGI (SN12C renal): > 100 µM

O=[N+]([O-])c1ccc(S(=O)(=O)Cc2ccccc2)c([N+](=O)[O-])c1
TGI (DU-145 prostate): 9.59 µM
TGI (IGROV1 ovarian): 6.36 µM
TGI (KM12 colon): 23.7 µM
TGI (MDA-MB-435): 3.34 µM
TGI (OVCAR-4 ovarian): 5.77 µM
TGI (OVCAR-5 ovarian): 27.3 µM
TGI (OVCAR-8 ovarian): 3.7 µM
TGI (PC-3 prostate): 3.45 µM
TGI (SK-MEL-2 melanoma): 8.62 µM

CCN(CC)CCOCC[C@H]1CC[C@H]2[C@@H]3[C@H](C)Cc4cc(OS(N)(=O)=O)ccc4[C@H]3CC[C@]12C
GI50 (DU-145 prostate): 1.48 µM
TGI (DU-145 prostate): 2.94 µM
GI50 (IGROV1 ovarian): 2.41 µM
TGI (IGROV1 ovarian): 8 µM
GI50 (KM12 colon): 1.25 µM
TGI (KM12 colon): 2.55 µM
GI50 (OVCAR-4 ovarian): 0.806 µM
TGI (OVCAR-4 ovarian): 2.29 µM
GI50 (OVCAR-5 ovarian): 2.52 µM
TGI (OVCAR-5 ovarian): 7.34 µM
GI50 (OVCAR-8 ovarian): 2.05 µM
TGI (OVCAR-8 ovarian): 5.67 µM
GI50 (PC-3 prostate): 1.57 µM
TGI (PC-3 prostate): 4.48 µM
GI50 (SK-MEL-2 melanoma): 2.32 µM
TGI (SK-MEL-2 melanoma): 4.45 µM
GI50 (SN12C renal): 1.19 µM
TGI (SN12C renal): 2.86 µM

COc1ccc(C(=O)c2cc(OC)c(OC)c(OC)c2)cc1
TGI (DU-145 prostate): 1.58 µM
TGI (IGROV1 ovarian): > 100 µM
TGI (KM12 colon): > 33.1 µM
TGI (MDA-MB-435): 0.0424 µM
TGI (OVCAR-4 ovarian): > 100 µM
TGI (OVCAR-5 ovarian): > 100 µM
TGI (OVCAR-8 ovarian): 31.7 µM
TGI (SK-MEL-2 melanoma): > 100 µM
TGI (SN12C renal): > 100 µM

COc1cc2c(cc1O)CC[C@@H]1[C@@H]2CC[C@]2(C)[C@@H](NCCN(C)C)CC[C@@H]12
GI50 (DU-145 prostate): 0.119 µM
TGI (DU-145 prostate): 0.423 µM
GI50 (IGROV1 ovarian): 0.407 µM
TGI (IGROV1 ovarian): 0.954 µM
GI50 (MDA-MB-435): 0.0662 µM
TGI (MDA-MB-435): 0.133 µM
GI50 (OVCAR-4 ovarian): 0.339 µM
TGI (OVCAR-4 ovarian): 0.943 µM
GI50 (OVCAR-5 ovarian): 0.314 µM
TGI (OVCAR-5 ovarian): 0.856 µM
GI50 (PC-3 prostate): 0.188 µM
TGI (PC-3 prostate): 0.599 µM
GI50 (SK-MEL-2 melanoma): 0.127 µM
TGI (SK-MEL-2 melanoma): 0.517 µM
GI50 (SN12C renal): 0.38 µM
TGI (SN12C renal): 1.48 µM

Cc1ccc(S(=O)(=O)N[C@H](C(=O)O)c2ccccc2)cc1
TGI (IGROV1 ovarian): > 100 µM
TGI (KM12 colon): > 100 µM
TGI (OVCAR-4 ovarian): > 100 µM
TGI (OVCAR-5 ovarian): > 100 µM
TGI (OVCAR-8 ovarian): > 100 µM
TGI (SK-MEL-2 melanoma): > 100 µM
TGI (SN12C renal): > 100 µM

CCOC(=O)Nc1cc2nnc(-c3ccccc3)nc2c(N)n1
TGI (IGROV1 ovarian): > 100 µM
TGI (KM12 colon): > 100 µM
TGI (OVCAR-4 ovarian): 69.2 µM
TGI (OVCAR-5 ovarian): 48.5 µM
TGI (OVCAR-8 ovarian): 76.4 µM
TGI (SK-MEL-2 melanoma): > 100 µM
TGI (SN12C renal): > 100 µM
